For one series, the system named is E. coli CVCC1515. Type of series: cell-based, Escherichia coli. Here is the method:
(§1) The antimicrobial activity of peptides was determined by the microbroth dilution method ([Zhang et al., 2014]). The bacterial strains were incubated in Mueller-Hinton (MH) medium at 28°C or 37°C overnight. Bacteria (1 × 10^5 CFU/mL) were added into 96-well plates, followed by the addition of serial dilutions of peptides (from 0.0625 to 128 μg/mL). The plates were incubated at 37°C for 18–24 h. The minimal inhibitory concentration (MIC) value was determined as the lowest peptide concentration at which no bacterial growth was observed.

A further series relates to E. coli CVCC25922. Type of series: cell-based, Escherichia coli. Here is the method:
as §1

In a further series the test system is Edwardsiella tarda. The class given is cell-based. Here is the method: as §1
In another series the test system is Escherichia coli CVCC195. The class given is cell-based. The protocol: as §1
For series [1], the system named is Salmonella pullorum CVCC1802. Type of series: cell-based. Here is the method:
as §1

Series [2] relates to Salmonella typhimurium CVCC533. Type of series: cell-based. As to conditions: murium CVCC533. Here is the method: as §1
Series [3] concerns Staphylococcus aureus ATCC43300. The class given is cell-based. The protocol: as §1
The test system of series [4] is Staphylococcus hyicus 437-2. Type of series: cell-based. The protocol: as §1
For a further series, the system named is S. aureus ATCC25923. The class given is cell-based, Staphylococcus aureus. The protocol:
as §1

The test system of another series is S. aureus ATCC546. The class given is cell-based, Staphylococcus aureus. The protocol: as §1
For another series, the system named is S. hyicus 15095. Type of series: cell-based, Staphylococcus hyicus. The protocol: as §1
Series [5] has as its system E. tarda. Description: Post-antibiotic effect (PAE). Type of series: cell-based, Edwardsiella tarda. To be noted: for PAE: 2 h exposure, E. tarda, 28°C, n = 3. Here is the method: E. tarda cells were incubated with peptides (1×, 2×, or 4× MIC) for 2 h, diluted, and cultured at 28°C and 200 rpm. An aliquot of samples (50 μL) were taken for CFU counts at different time intervals until bacterial cultures became turbid. Bacteria treated with the N6NH2, GUON6NH2 or vancomycin were used as the positive control; bacteria without treatment were used as the blank control. The PAE was calculated using the following formula: PAE = T–C, where T is the time for the CFU counts to increase by 10-fold above the count observed immediately after drug removal, and C is the corresponding time for the untreated control ([Oh et al., 2019]).

The test system of series [6] is E. tarda. As to the kind of experiment: SEM and TEM morphology. The class given is cell-based, Edwardsiella tarda. To be noted: 4× MIC, 2 h. The protocol: To further characterize the bactericidal effects of the peptides, scanning electron microscopy (SEM) and transmission electron microscopy (TEM) were used to visualize morphological changes ([Yang et al., 2019]). E. tarda was cultured to logarithmic growth stage (10^8 CFU/mL) and diluted with 0.01 M PBS (pH 7.4) to OD600 nm = 1. E. tarda cells were treated with 4× MIC peptides at 37°C for 2 h and the untreated cells were used as the control. Briefly, after centrifugation, the bacterial cells were washed three times with 0.1 M PBS (pH 7.2) and fixed overnight at 4°C with 2.5% glutaraldehyde. After washing again, the cells were fixed with 1% osmium tetroxide (OsO4) for 2 h and dehydrated in a graded ethanol series (50%–70%–85%–95% × 2–100%, × 2) for 15 min, respectively. The samples were then dried by CO2, sputtered with gold-palladium, and observed on a QUANTA200 SEM (FEI, Philips, Netherlands).
E. tarda cells were treated peptides before fixation as described above. The bacteria were washed with 0.01 M PBS (pH 7.4) for five times, 7 min each time, and fixed with 1% osmium acid buffer (4°C) for 1 h. After dehydration with a graded acetone series (30%–50%–70%–85%–95%–100% × 3), the cells were immersed in mixtures of acetone and resin (3:1, 1:1 and 1:3, respectively) for 40 min and in a pure epoxy resin overnight. The samples were then embedded in embedding medium and polymerized at 45°C for 3 h and at 65°C for 24 h, respectively. The sections were prepared using an ultramicrotome, stained with 1% uranyl acetate, and visualized by a JEM1400 (JEDL, Tokyo, Japan).

Another series deals with RAW 264.7 macrophages. Type of series: cell-based, mouse. The protocol: To quantify peptide uptake, RAW 264.7 macrophages were grown in 12-well plates (2.5 × 10^5 cells/mL, 750 μL/well) for 24 h. Then, the cells were treated with FITC-N6NH2 and FITC-GUON6NH2 (1, 5, 10, 25, and 50× MIC) for 18 h and washed with PBS. To avoid the influence of membrane-bound FITC-labeled peptides, the cells were incubated with 0.04% trypan blue in PBS for 15 min and the fluorescence intensity was analyzed using a FACS Calibur Flow Cytometer (BD, United States) ([Duchardt et al., 2009]).

Series [7] relates to intracellular E. tarda in RAW 264.7 macrophages. Type of series: cell-based, Edwardsiella tarda. As to conditions: for killing of intracellular bacteria: 5–50× MIC, RAW 264.7; for killing of intracellular bacteria / killing efficacy against intracellular E. tarda: 18 h; for killing efficacy against intracellular E. tarda: 1. The protocol: For intracellular activity, RAW 264.7 macrophages (2.5 × 10^5 cells/mL) were cultured for 24 h in DMEM with 10% FBS (without antibiotics) ([Edwards and Massey, 2011]). Meanwhile, mid-log phase E. tarda were collected by centrifugation, diluted to a concentration of 2.5 × 10^8 CFU/mL in DMEM with 10% FBS (without antibiotic), and incubated with RAW 264.7 macrophages for 0.5 h. Gentamicin (1,000 μg/mL) was then added into the cells and incubated for 30 min to remove extracellular bacteria. After washing twice with PBS, […], washed again, and lysed with Hanks buffered saline solution (0.1% bovine serum albumin and 0.1% Triton-X). The numbers of intracellular bacteria were counted at 0 and 18 h, respectively.

The test system of series [8] is E. tarda. Description: Mouse peritonitis model, survival. Type of series: in vivo. To be noted: 1 μmoL/kg i.p. at 1 h postinfection, ICR mice, 5 days. The protocol: To establish a peritonitis mouse model, six-week-old female ICR mice (five mice/group) were intraperitoneally injected with E. tarda (1 × 10^9 CFU/mL, 0.5 mL). The infected mice were followed by the intraperitoneal injection of N6NH2, GUON6NH2 or norfloxacin (1 μmol/kg of body weight, 0.2 mL) at 1 h postinfection, respectively. Mice injected with only bacteria or PBS were used as negative or blank controls. The survival of mice was recorded daily for 5 days.

≈ marks a conversion by molar mass, not a printed value. Where a SMILES comes first, the peptide text is derived from it. Bridges are numbered along the chain shown (N, C = ends). The star is where a group is joined. Orn(α-tetramethylguanidino) = CN(C)C(=N[C@@H](CCCN)C(=O)*)N(C)C

For orientation: MIC means the least concentration at which growth counts as inhibited. `CC(C)[C@@H]1NC(=O)CNC(=O)[C@H](CC(N)=O)NC(=O)[C@H](CCCNC(=N)N)NC(=O)[C@H](Cc2ccc(O)cc2)NC(=O)[C@H](C(C)C)NC(=O)[C@@H](NC(=O)[C@@H](NC(=O)[C@H](CC(N)=O)NC(=O)[C@H](Cc2c[nH]c3ccccc23)NC(=O)[C@H](C)NC(=O)[C@H](Cc2ccccc2)NC(=O)[C@H](CCCN)N=C(N(C)C)N(C)C)C(C)C)CSSC[C@@H](C(=O)N[C@@H](Cc2c[nH]cn2)C(=O)N[C@@H](CCCNC(=N)N)C(=O)N[C@@H](CCCNC(=N)N)C(=O)N[C@@H](C)C(=O)N[C@@H](CC(N)=O)C(N)=O)NC(=O)[C@H](C(C)C)NC(=O)[C@H](CCCNC(=N)N)NC1=O` [GUON6NH2] ({Orn(α-tetramethylguanidino)}-FAWNVCVYRNGVRVCHRRAN-NH2; disulfide 6-15): the MIC in the series on E. coli CVCC1515 came to 2 µg/mL (≈ 0.76 µM); with E. coli CVCC25922 it was 4 µg/mL (≈ 1.52 µM); with Edwardsiella tarda, 8 µg/mL (≈ 3.04 µM); in the series with Escherichia coli CVCC195, 4 µg/mL (≈ 1.52 µM); in series [1], 4 µg/mL (≈ 1.52 µM); in series [2], 8 µg/mL (≈ 3.04 µM). Moreover, the MIC in series [3] came to 16 µg/mL (≈ 6.08 µM); in [4], 32 µg/mL (≈ 12.2 µM); in the series with S. aureus ATCC25923, 32 µg/mL (≈ 12.2 µM); with S. aureus ATCC546, 16 µg/mL (≈ 6.08 µM); against S. hyicus 15095, 4 µg/mL (≈ 1.52 µM). Besides, the PAE is 1.54 h in the series with E. tarda [5] (1× MIC), 1.51 h in the series on E. tarda [5] (2× MIC) and 3.97 h in the series on E. tarda [5] (4× MIC). In addition, the “PAE, times longer than that of N6NH2” value in the series with E. tarda [5] (4× MIC) worked out at 2.65 times. In addition, in the series with E. tarda [6], the “morphological changes by SEM” value was “some protrusions were observed on the cell surfaces”. In addition, the “percentages of florescent cells” value in the series on RAW 264.7 macrophages is recorded as 16.1–86.5%. Also, the “killing of intracellular bacteria” value in series [7] was “killed all intracellular bacteria”. Also, the “killing efficacy against intracellular E. tarda” value in [7] is given as “over 97.07%”. Besides, the “survival rate of mice” value in the series with E. tarda [8] worked out at 60%.

Take `CC(C)[C@@H]1NC(=O)CNC(=O)[C@H](CC(N)=O)NC(=O)[C@H](CCCNC(=N)N)NC(=O)[C@H](Cc2ccc(O)cc2)NC(=O)[C@H](C(C)C)NC(=O)[C@@H](NC(=O)[C@@H](NC(=O)[C@H](CC(N)=O)NC(=O)[C@H](Cc2c[nH]c3ccccc23)NC(=O)[C@H](C)NC(=O)[C@H](Cc2ccccc2)NC(=O)CN)C(C)C)CSSC[C@@H](C(=O)N[C@@H](Cc2cnc[nH]2)C(=O)N[C@@H](CCCNC(=N)N)C(=O)N[C@@H](CCCNC(=N)N)C(=O)N[C@@H](C)C(=O)N[C@@H](CC(N)=O)C(N)=O)NC(=O)[C@H](C(C)C)NC(=O)[C@H](CCCNC(=N)N)NC1=O` [N6NH2]: the MIC against E. coli CVCC1515 turned out to be 2 µg/mL (≈ 0.808 µM); with E. coli CVCC25922, 4 µg/mL (≈ 1.62 µM); against Edwardsiella tarda, 8 µg/mL (≈ 3.23 µM); against Escherichia coli CVCC195 it was 4 µg/mL (≈ 1.62 µM); in series [1], 4 µg/mL (≈ 1.62 µM); in [2] it was 4 µg/mL (≈ 1.62 µM). Also, the MIC in [3] stood at 16 µg/mL (≈ 6.46 µM); in [4], 32 µg/mL (≈ 12.9 µM); against S. aureus ATCC25923, 32 µg/mL (≈ 12.9 µM); with S. aureus ATCC546, 16 µg/mL (≈ 6.46 µM); against S. hyicus 15095, 8 µg/mL (≈ 3.23 µM). Besides, the PAE with E. tarda [5] (1× MIC) was determined as 1.75 h; with E. tarda [5] (2× MIC), 1.67 h; in the series with E. tarda [5] (4× MIC), 1.5 h. Further, in the series on E. tarda [6], the “morphological changes by SEM” value is reported as “some protrusions were observed on the cell surfaces”. Moreover, the “percentages of florescent cells” value with RAW 264.7 macrophages was 27.6–79.8%. The “killing of intracellular bacteria” value in [7] was “killed all intracellular bacteria”. For the same molecule, the “killing efficacy against intracellular E. tarda” value in series [7] is given as 96.82%. The “intracellular inhibition rate against E. tarda” value in [7] (24 h, 50) is 96.82–100%. The “survival rate of mice” value in the series on E. tarda [8] is recorded as 80%.

The values above are taken from publication PMC7985170, “Marine Peptide-N6NH2 and Its Derivative-GUON6NH2 Have Potent Antimicrobial Activity Against Intracellular Edwardsiella tarda in vitro and in vivo” (Frontiers in Microbiology, 2021).
